{
  "source": "patent US8598339B2",
  "about": "“Withanolide isolated from Physalis longifolia and analogs and methods of use thereof” (University of Kansas, priority 2011, dated 2013)",
  "format_in_all_cases": "cell-based",
  "key": {"HS766T": {"tested_on": "HS766T", "assay": "Pancreatic cancer cell viability, HS766T", "method": "(§1) The activity of the withanolides of this invention were tested in pancreatic cancer cells. […] Moreover, IC50 values were determined for these compounds (Table 14)."}, "[1]": {"tested_on": "hsf1 and client proteins of Hsp90 in MIA PaCa-2 cells", "assay": "Western blot, MIA PaCa-2"}, "[2]": {"tested_on": "squamous cell carcinoma of head and neck cells JMAR", "assay": "MTS cell viability assay, JMAR", "settings": "for pIC50: Table 1, 72-hour treatment", "method": "(§2) Human carcinoid cells, NCI-H727 (ATCC, Manassas, Va.), were cultured under standard conditions. Squamous cell carcinoma of head and neck cells, MDA1986 (Myers, et al. (2002) Clin. Cancer Res. 8:293) and JMAR (Swan, et al. (2003) Oral Oncol. 39:648-55); and melanoma cells lines B16F10 (ATCC, Manassas, Va.) and SKMEL28 (CLS, Eppelheim, Germany) were cultured in DMEM medium supplemented with 10% heat-inactivated fetal bovine serum (Sigma-Aldrich, St. Louis, Mo.), 1×MEM-essential amino acid, 1×MEM vitamin, and penicillin/streptomycin (Sigma-Aldrich, St. Louis, Mo.) in a humid environment of 5% CO2 at 37° C. Activity of withanolides against DRO81-1 and TT medullary thyroid cancer cells was also determined.\n(§3) Cells were cultured in 96 well plates at a concentration of 1-2×10^4 cells/mL. Cell viability was assessed with the nonradioactive cell proliferation MTS assay using Cell Titer 96AQUEOUS One Solution Reagent (PROMEGA, Madison, Wis.), according to the manufacturer's instruction. After a 72-hour treatment, 20 μL of Cell Titer 96AQUEOUS One Solution Reagent were added to each well and incubated for 3 hours at 37° C. 5% CO2, and formazan absorbance was measured at 490 nm."}, "[3]": {"tested_on": "human melanoma SKMEL28 cells", "assay": "MTS cell viability assay, SKMEL28", "settings": "Homo sapiens; for pIC50: SK-MEL-28, 72 h", "method": "as §2, §3\nA cell viability MTS assay was carried out to determine the anti-cancer effect of the withanolides on human melanoma SKMEL28 cells. Cells were treated for 72 hours and cell viability was determined according to the manufacturer's instruction."}, "[4]": {"tested_on": "squamous cell carcinoma of head and neck cells MDA1986", "assay": "MTS cell viability assay, MDA1986", "settings": "Table 1, 72-hour treatment", "method": "as §2, §3"}, "Mia PaCa-2": {"tested_on": "Mia PaCa-2", "assay": "Pancreatic cancer cell viability, Mia PaCa-2", "settings": "Homo sapiens", "method": "as §1"}, "[5]": {"tested_on": "human carcinoid cells NCI-H727", "assay": "MTS cell viability assay, NCI-H727", "method": "as §2, §3"}, "MRC-5": {"tested_on": "MRC-5", "assay": "MTS cell viability assay, MRC-5", "settings": "Homo sapiens, MRC5, Table 1, 72-hour treatment"}, "melanoma cells B16F10": {"tested_on": "melanoma cells B16F10", "assay": "MTS cell viability assay, B16F10", "settings": "Mus musculus; for pIC50: B16-F10, Table 1, 72-hour treatment", "method": "as §2, §3"}, "[6]": {"tested_on": "DRO81-1 medullary thyroid cancer cells", "assay": "MTS cell viability assay, DRO81-1", "method": "as §2, §3"}, "[7]": {"tested_on": "hsf1 and client proteins of Hsp90 in Hs766T cells", "assay": "Western blot, Hs766T"}, "[8]": {"tested_on": "heat shock factor (HSF) / HSE-luciferase in Hs766T cells", "assay": "HSE-luciferase reporter, Hs766T", "parameters": "dose or concentration left out as unconfirmed", "settings": "heat shock 42° C. 30 minutes; recovery 8 hours", "method": "To monitor the activation of heat shock factor (HSF) and heat shock-mediated signal transduction pathways, Hs766T cells were transfected with a HSE-luciferase construct, then treated with 3 mM of the selected withanolides for 8 hours. The cells were heat shocked at 42° C. for 30 minutes and allowed to recover at 37° C. for 8 hours. Cells were lysed and luciferase activity was measured on a plate reader."}, "[9]": {"tested_on": "HSF1, Hsp70 and Hsp40 mRNA", "assay": "HSF1, Hsp70 and Hsp40 mRNA levels", "settings": "Control 1.0", "method": "Levels of HSF1, Hsp70 and Hsp40 mRNA were also determined in response to treatment with SX002 or X003 for 8 or 16 hours."}, "[10]": {"tested_on": "TT medullary thyroid cancer cells", "assay": "MTS cell viability assay, TT", "settings": "Table 1, 72-hour treatment", "method": "as §2, §3"}, "normal MRC-5 fibroblasts": {"tested_on": "normal MRC-5 fibroblasts", "assay": "MTS assay, normal MRC-5 fibroblasts (Example 7)", "settings": "Homo sapiens, MRC5", "method": "(§4) Cell proliferation was analyzed using MTS assay and Trypan Blue exclusion. Annexin V-FITC/Propidium Iodide flow cytometry was used to analyze the induction of apoptosis in SUP-B15 cells after treatment with anolides. Cell cycle analysis was performed using propidium iodide flow cytometry. Modulation of BCR-ABL and downstream effector proteins was determined by western blot analysis. Syngery between withanolides and TKIs was evaluated using MTS viability to calculate combination indices. Apoptotic synergy was evaluated using Annexin V/PI."}, "SUP-B15 cells [11]": {"tested_on": "SUP-B15 cells", "assay": "Cell cycle analysis by PI flow cytometry, SUP-B15", "settings": "48 hour treatment", "method": "as §4"}, "SUP-B15 cells [12]": {"tested_on": "SUP-B15 cells", "assay": "Trypan blue exclusion assay, SUP-B15", "settings": "5×, 2×, 1×, 0.5×IC50", "method": "as §4, with “Syngery” left out"}, "SUP-B15 Ph+ALL cells": {"tested_on": "SUP-B15 Ph+ALL cells", "assay": "Combination with imatinib, MTS viability, SUP-B15", "settings": "16 combinations", "method": "as §4"}, "SUP-B15 cells [13]": {"tested_on": "SUP-B15 cells", "assay": "Annexin V/propidium iodide apoptosis, SUP-B15", "settings": "48 hour; approximately 10×IC50 (Withaferin A, X001), 4×IC50 (X003)", "method": "as §4\nAt no concentrations was the population of cells in necrosis significant."}, "SUP-B15 Ph+ ALL cells": {"tested_on": "SUP-B15 Ph+ ALL cells", "assay": "MTS assay, SUP-B15", "method": "as §4"}, "[14]": {"settings": "Table 3, treated for 72 hours, NA = no activity"}},
  "note": "pIC50: −log10 of the molar value. Like-named read-outs stand apart in the source and are kept apart here.",
  "data": [
    {"compound": "CC(=O)OCC1=C(C)C[C@H]([C@@H](C)C2CC[C@H]3[C@@H]4C[C@H]5O[C@]56[C@@H](OC(C)=O)C=CC(=O)[C@]6(CO)[C@H]4CC[C@]23C)OC1=O", "note": "(some centres unmarked) [Compound X002, 4,27-diactyl X001]", "values": [
      {"measurement": "pIC50", "setting": "HS766T", "result": 6.40},
      {"measurement": "stress and client protein response (western blot)", "setting": "[1]", "result": "induced oxidative and proteotoxic stress, while depleting hsf1 and client proteins of Hsp90"},
      {"measurement": "pIC50", "setting": "[2]", "result": 6.85},
      {"measurement": "pIC50", "setting": "[3]; Table 1, 72-hour treatment", "result": 6.09},
      {"measurement": "pIC50", "setting": "[3]; [14]", "result": 5.90},
      {"measurement": "pIC50", "setting": "[4]", "result": 5.65},
      {"measurement": "pIC50", "setting": "Mia PaCa-2", "result": 6.66},
      {"measurement": "pIC50", "setting": "[5]; NCI-H727, 72 h", "result": 6.43},
      {"measurement": "pIC50", "setting": "MRC-5", "result": 6.39},
      {"measurement": "pIC50", "setting": "melanoma cells B16F10", "result": 7.01},
      {"measurement": "pIC50", "setting": "[6]; 72 h", "result": 6.32},
      {"measurement": "stress and client protein response (western blot)", "setting": "[7]", "result": "induced oxidative and proteotoxic stress, while depleting hsf1 and client proteins of Hsp90"},
      {"measurement": "heat shock-induced increase in luciferase activity", "setting": "[8]", "result": "substantially reduced"},
      {"measurement": "HSF1 mRNA level", "setting": "[9]; 8 hours", "result": 1.3},
      {"measurement": "HSP40 mRNA level", "setting": "[9]; 8 hours", "result": 13.1},
      {"measurement": "HSP70 mRNA level", "setting": "[9]; 8 hours", "result": 56.6},
      {"measurement": "HSF1 mRNA level", "setting": "[9]; 16 hours", "result": 1.1},
      {"measurement": "HSP40 mRNA level", "setting": "[9]; 16 hours", "result": 15.3},
      {"measurement": "HSP70 mRNA level", "setting": "[9]; 16 hours", "result": 196.7}
    ]},
    {"compound": "CC1=C(CO)C(=O)O[C@@H]([C@@H](C)[C@H]2CC[C@H]3[C@@H]4C[C@H]5O[C@]56[C@@H](O)C=CC(=O)[C@]6(C)[C@H]4CC[C@]23C)C1", "note": "[Withaferin A, reference compound]", "values": [
      {"measurement": "pIC50", "setting": "[10]", "result": 5.95},
      {"measurement": "pIC50", "setting": "normal MRC-5 fibroblasts", "result": 5.66},
      {"measurement": "Cell Cycle (%) G0/G1", "setting": "SUP-B15 cells [11]; 80 nM", "result": 49.9, "unit": "%"},
      {"measurement": "Cell Cycle (%) G2/M", "setting": "SUP-B15 cells [11]; 80 nM", "result": 27.8, "unit": "%"},
      {"measurement": "Cell Cycle (%) S", "setting": "SUP-B15 cells [11]; 80 nM", "result": 22.2, "unit": "%"},
      {"measurement": "Cell Cycle (%) G0/G1", "setting": "SUP-B15 cells [11]; 160 nM", "result": 50.2, "unit": "%"},
      {"measurement": "Cell Cycle (%) G2/M", "setting": "SUP-B15 cells [11]; 160 nM", "result": 28.4, "unit": "%"},
      {"measurement": "Cell Cycle (%) S", "setting": "SUP-B15 cells [11]; 160 nM", "result": 21.4, "unit": "%"},
      {"measurement": "Cell Cycle (%) G0/G1", "setting": "SUP-B15 cells [11]; 320 nM", "result": 38.4, "unit": "%"},
      {"measurement": "Cell Cycle (%) G2/M", "setting": "SUP-B15 cells [11]; 320 nM", "result": 46.8, "unit": "%"},
      {"measurement": "Cell Cycle (%) S", "setting": "SUP-B15 cells [11]; 320 nM", "result": 14.8, "unit": "%"},
      {"measurement": "Cell Cycle (%) G0/G1", "setting": "SUP-B15 cells [11]; 640 nM", "result": 23.7, "unit": "%"},
      {"measurement": "Cell Cycle (%) G2/M", "setting": "SUP-B15 cells [11]; 640 nM", "result": 71, "unit": "%"},
      {"measurement": "Cell Cycle (%) S", "setting": "SUP-B15 cells [11]; 640 nM", "result": 5.3, "unit": "%"},
      {"measurement": "Cell Cycle (%) G0/G1", "setting": "SUP-B15 cells [11]; 1280 nM", "result": 47.1, "unit": "%"},
      {"measurement": "Cell Cycle (%) G2/M", "setting": "SUP-B15 cells [11]; 1280 nM", "result": 34.3, "unit": "%"},
      {"measurement": "Cell Cycle (%) S", "setting": "SUP-B15 cells [11]; 1280 nM", "result": 18.6, "unit": "%"},
      {"measurement": "pIC50", "setting": "[2]", "result": 5.70},
      {"measurement": "IC90", "setting": "[2]; Table 2", "result": 3600, "unit": "nM"},
      {"measurement": "pIC50", "setting": "[3]; Table 1, 72-hour treatment", "result": 5.40},
      {"measurement": "pIC50", "setting": "[3]; [14]", "result": 5.50},
      {"measurement": "IC90", "setting": "[3]; SK-MEL-28, Table 2", "result": 680, "unit": "nM"},
      {"measurement": "cell death at 24 hours, trypan blue exclusion", "setting": "SUP-B15 cells [12]", "result": "did not cause significant cell death at 24 hours at any concentration tested"},
      {"measurement": "combination index (CI) with imatinib", "setting": "SUP-B15 Ph+ALL cells; 0.25×-1×IC50 of each drug", "result": 1.3},
      {"measurement": "synergy with imatinib", "setting": "SUP-B15 Ph+ALL cells", "result": "only showed synergy at three of the concentrations tested"},
      {"measurement": "pIC50", "setting": "[4]", "result": 6.10},
      {"measurement": "pIC50", "setting": "[5]; Table 1, NCI-H727, 72-hour treatment, read-out: IC50", "result": 5.41},
      {"measurement": "pIC50", "setting": "MRC-5", "result": 6.70},
      {"measurement": "pIC50", "setting": "melanoma cells B16F10", "result": 6.59},
      {"measurement": "IC90", "setting": "melanoma cells B16F10; B16-F10, Table 2", "result": 1230, "unit": "nM"},
      {"measurement": "induction of apoptosis", "setting": "SUP-B15 cells [13]", "result": "almost all cells were in either late or early apoptosis"},
      {"measurement": "pIC50", "setting": "[6]; Table 1, DRO81-1, 72-hour treatment, read-out: IC50", "result": 5.96},
      {"measurement": "pIC50", "setting": "SUP-B15 Ph+ ALL cells; Homo sapiens, SUP-B15", "result": 6.88},
      {"measurement": "Fold Difference", "setting": "SUP-B15 Ph+ ALL cells; MRC-5 vs SUP-B15 IC50", "result": 17, "unit": "X"}
    ]}
  ]
}
